Measurements reported in ChEMBL document CHEMBL6127130, “Pullenvalenes E-H: Triterpenyl-Aminoglycosides from an Australian Soil-Derived Fungus, Clonostachys sp” (J Nat Prod, 2024).

How the values were obtained:
[1] = Inhibition of RANKL-induced osteoclastogenesis in mouse RAW264 cells assessed as reduction in multinucleated TRAP positive osteoclasts incubated for 4 days by TRAP staining based light microscopic analysis; assay type: functional, cell-based; conditions: raw264.7
Staphylococcus aureus = assay: Antibacterial activity against Staphylococcus aureus ATCC 25923 assessed as inhibition of bacterial growth incubated for 24 hrs by serial dilution based spectrophotometric analysis; assay type: functional, organism-based; conditions: ATCC 25923, 24 h
SW-620 = assay: Cytotoxicity against human SW620 cells assessed as inhibition of cell growth incubated for 24 hrs by MTT assay; assay type: functional, cell-based; conditions: SW-620, 24 h
Candida albicans = assay: Antifungal activity against Candida albicans ATCC 10231 assessed as inhibition of fungal growth incubated for 48 hrs by serial dilution based spectrophotometric analysis; assay type: functional, organism-based; conditions: ATCC 10231, 48 h
Escherichia coli = assay: Antibacterial activity against Escherichia coli ATCC 11775 assessed as inhibition of bacterial growth incubated for 24 hrs by serial dilution based spectrophotometric analysis; assay type: functional, organism-based; conditions: ATCC 11775, 24 h
NCI-H460 = assay: Cytotoxicity against human NCI-H460 cells assessed as inhibition of cell growth incubated for 24 hrs by MTT assay; assay type: functional, cell-based; conditions: NCI-H460, 24 h

Compound	IC50 [1] [µM]	IC50 (Staphylococcus aureus) [µM]	IC50 (SW-620) [µM]	IC50 (Candida albicans) [µM]	IC50 (Escherichia coli) [µM]	IC50 (NCI-H460) [µM]
CC(C)[C@@]1(O)CC[C@@]2(C)C[C@](O)([C@@H]3CC[C@@H]4[C@]3(C)CC[C@H]3OC(C)(C)[C@H](O)C(=O)[C@@H](O)[C@]43C)CC[C@H]21	12.8	–	–	–	–	–
COC[C@H]1O[C@H](O[C@@]2(C)CC[C@@H](C(C)(C)O)O[C@@H]2CC[C@H](C)[C@@]2(C)CCC3=C2CC[C@@H]2OC(C)(C)[C@H](O[C@H]4O[C@H](COC)[C@@H](O)[C@H](O)[C@H]4NC(C)=O)[C@@H](O)C[C@@]32C)[C@H](NC(C)=O)[C@@H](O)[C@@H]1O	–	> 30	> 30	> 30	> 30	> 30
COC[C@H]1O[C@H](O[C@@]2(C)CC[C@@H](C(C)(C)O)O[C@@H]2CC[C@H](C)[C@@]2(C)CC=C3[C@@H]2CC[C@@H]2OC(C)(C)[C@H](O[C@H]4O[C@H](COC)[C@@H](O)[C@H](O)[C@H]4NC(C)=O)[C@@H](O)C[C@@]32C)[C@H](NC(C)=O)[C@@H](O)[C@@H]1O	–	> 30	> 30	> 30	> 30	> 30
CC(C)[C@@]1(O)CC[C@@]2(C)C[C@](O)([C@@H]3CC[C@@H]4[C@]3(C)CC[C@H]3OC(C)(C)[C@H](O)C(=O)[C@H](O)[C@]43C)CC[C@H]21	32.8	–	–	–	–	–
COC[C@H]1O[C@H](O[C@@H]2CC[C@@]3(C)C4=CC[C@](C)([C@@H](C)CC[C@H]5O[C@H](C(C)(C)O)CC[C@]5(C)O)[C@H]4CC[C@@H]3OC2(C)C)[C@H](NC(C)=O)[C@@H](O)[C@@H]1O	–	> 30	> 30	> 30	> 30	> 30
COC[C@H]1O[C@H](O[C@@H]2CC[C@@]3(C)C4=CC[C@](C)([C@@H](C)CC[C@H]5O[C@H](C(C)(C)O)CC[C@]5(C)O[C@H]5O[C@H](COC)[C@@H](O)[C@H](O)[C@H]5NC(C)=O)[C@H]4CC[C@@H]3OC2(C)C)[C@H](NC(C)=O)[C@@H](O)[C@@H]1O	–	> 30	> 30	> 30	> 30	> 30
COC[C@H]1O[C@H](O[C@@H]2[C@@H](O)C[C@@]3(C)C4=CC[C@](C)([C@@H](C)CC[C@H]5O[C@H](C(C)(C)O)CC[C@]5(C)O)[C@H]4CC[C@@H]3OC2(C)C)[C@H](NC(C)=O)[C@@H](O)[C@@H]1O	–	> 30	> 30	> 30	> 30	> 30
CC(=O)N[C@H]1[C@@H](O[C@@H]2CC[C@@]3(C)C4=CC[C@](C)([C@@H](C)CC[C@H]5O[C@H](C(C)(C)O)CC[C@]5(C)O)[C@H]4CC[C@@H]3OC2(C)C)O[C@H](CO)[C@@H](O)[C@@H]1O	–	> 30	> 30	> 30	> 30	> 30
COC[C@H]1O[C@H](O[C@@H]2CC[C@@]3(C)C4=C(CC[C@@H]3OC2(C)C)[C@@](C)([C@@H](C)CC[C@H]2O[C@H](C(C)(C)O)CC[C@]2(C)O[C@H]2O[C@H](COC)[C@@H](O)[C@H](O)[C@H]2NC(C)=O)CC4)[C@H](NC(C)=O)[C@@H](O)[C@@H]1O	–	> 30	> 30	> 30	> 30	> 30
COC[C@H]1O[C@H](O[C@@]2(C)CC[C@@H](C(C)(C)O)O[C@@H]2CC[C@H](C)[C@@]2(C)CC=C3[C@@H]2CC[C@@H]2OC(C)(C)[C@H](O[C@H]4O[C@H](CO)[C@@H](O)[C@H](O)[C@H]4NC(C)=O)CC[C@@]32C)[C@H](NC(C)=O)[C@@H](O)[C@@H]1O	–	> 30	> 30	> 30	> 30	> 30
